Data taken from US20180064659A1, “AGENTS USEFUL FOR TREATING OBESITY, DIABETES AND RELATED DISORDERS” (The Regents of the University of California, priority 2015, published 2018).

How the values were obtained:
mice = assay: Insulin tolerance test (ITT) and basal blood glucose in mice; assay type: in vivo, mouse; conditions: for Insulin sensitivity in vivo (ITT): PO 20 and 50 mg/kg in peanut butter, five days
Procedure: Insulin Tolerance Test (ITT) and Glucose Tolerance Test (GTT) Protocol for FIG. 2C: Groups of age/sex matched mice of Control and ShcKO genotypes were food deprived for four hours and challenged with I.P. injection of insulin, and glucose concentration was determined in blood exactly at indicated time-points. Decrease and recovery of blood glucose was calculated as a % of basal level (the time-point before insulin injection). Basal levels of glucose were measured in triplicate for each mouse. For the GTT, the same groups of mice were fasted during fourteen hours and challenged with glucose injection I.P., analogously the blood glucose concentrations were measured.
In-vivo drugs testing to improve the insulin sensitivity of periphery for FIG. 6D, E: Groups of mice, ten for the experimental drug treatment and 14 for the placebo treatment were subject for I.P. administration of a drug or placebo solutions daily during four days. Acarbose, a known drug which decreases blood glucose concentration was used as a control. The insulin tolerance test, ITT was performed on the mice as described previously, in Example 2.
Sensogramms were obtained, and response [nm] for each concentration was plotted against log concentration of idebenone. Sigmoidal, variable slope fitting analysis was performed using GraphPad Prism Software (GraphPad Software, Inc., La Jolla, Calif.). […] Cells were stimulated with 0.2 nM insulin for 10 minutes, and Western analyzed for induction of Akt and ERK. Insulin dependent activation of Akt is presented as fold change over vehicle control, and plotted against log concentration of idebenone; tubulin signal was used for normalization between biological samples. Sigmoidal dose-response (variable slope) fitting analysis was performed, EC50, hill slope, and top response were identified, as described above, and are indicated on the graph. p-value was calculated by testing R^2 for significance for N=65. […] Idebenone at indicated dose was given to animals 30 minutes before dark phase for five days. At the day of Insulin Tolerance Test (ITT) additional dose of idebenone was given to animals two hours prior to insulin injection. For ITT, the food was deprived at 7 am (the beginning of light phase), basal glucose was measured at 11 am, and insulin was administrated at 0.8 U/kg dose; blood glucose was recorded and expressed as % of baseline, and plotted against time. […] Software (CambridgeSoft Corporation, Waltham, Mass.), and virtually docked to Shc-PTB using iGEMDOCK software (BioXGEM Lab, National Chiao-Tung University Hsinchu, Taiwan, R.O.C), and, MOL file was generated. Three dimensional structure of PTB domain of Shc was obtained from Protein Data Bank (http://www.rcsb.org/).

FL83B cells = assay: High-throughput in-cell western blot (ICWB) screen for insulin sensitizers, P-Akt over P-ERK; assay type: cell-based, mouse
Procedure: Drugs were screened by in-cell western blot (ICWB) for their ability to stimulate phospho-Akt activation in the presence of trace or 10 nM insulin (FIG. 4A). Cells in wells were treated with drugs, and the activity (phosphorylation) of Akt was determined by a phospho-Akt specific antibody. In FIG. 4A, low insulin was given and drugs a, b, c, stimulated Akt activation. In FIG. 4B, 10 nM insulin was given and a, b, and c stimulated signaling over background, and d and […] inhibited. […] Drugs were primarily screened for their ability to promote insulin-dependent stimulation of (phospho)Akt, then secondarily screened for lack of activity to stimulate (phospho) Erk, or a high Akt/Erk ratio. Such drugs are expected to cause insulin sensitivity, resistance to obesity, and longevity. Some drugs having these desired characteristics are Shc inhibitors.
Primary ICWB was performed as follows: FL83B cells were seeded on 384 well plates, 10,000 cells per well in F-12 media supplemented with 10% FBS and 25 mM glucose; 48 hours later the media was replaced with F-12, 25 mM glucose without FBS for sixteen hours; cells were supplemented with assigned drug at desired concentration for 1 hour in duplicate and then, the cells were stimulated with desired concentration of insulin for ten minutes for Akt activation and fifteen minutes for ERK activation measurements. After that time the media was removed and replaced with fixing solution of 5% Formaldehyde in PBS, pH=7.4, 30 minutes later, the fixing solution was replaced with the permeabilization buffer, 0.1% triton X100 in PBS for 40 minutes. […] After the incubation with the secondary antibodies for one hour at room temperature, the wells were washed again two times with the 0.1% tween-20 in PBS and scanned on the Li-Cor Odyssey infrared scanner; images were analyzed with the Li-Cor Odyssey software. […] Phospho-Akt, Phospho-ERK signals than were normalized by tubulin signals in each well and the densitometric results were analyzed to identify drugs which improved metabolic insulin sensitivity without inducing the mitogenic ERK activation. […]

| Structure (SMILES) | Basal blood glucose (mice; 2.5 mg/kg I.P. for 4 days) | Insulin sensitivity in-vivo (ITT) (mice; 2.5 mg/kg I.P. for 4 days) | Score rank in screening assay (FL83B cells; 1689 molecules screened) | Insulin sensitivity in vivo (ITT) (mice) | Insulin sensitivity in vivo (ITT) (mice; listed as Idebenone) | P-Akt/P-Erk ratio in primary screen (FL83B cells; ICWB primary screen) |
| --- | --- | --- | --- | --- | --- | --- |
| COc1cc2ncnc(Nc3ccc(Oc4ccccc4)cc3)c2cc1OC [SrcI-1] | significantly decreased basal blood glucose | increased insulin sensitivity in-vivo | scored in the top 35 out of 1689 molecules |  |  |  |
| COC1=C(OC)C(=O)C(CCCCCCCCCCO)=C(C)C1=O [idebenone] |  |  |  | increased insulin sensitivity in vivo | significantly improving insulin sensitivity in-vivo | increased P-Akt/P-Erk ratio |
